Series [1] addresses Prostaglandin G/H synthase 1 (Homo sapiens, UniProt P23219). The format is microsomes, U-937, Microsome.
Description: Inhibition of COX-1 in U-937 (human lymphoma) cell microsomes.
Series [2] relates to Rattus norvegicus. In words: Potency in rat paw edema assay. Format: functional.
The nature of series [3]: Slow clearance (CL) was determined. Format: ADME, organism-based. The conditions noted are these: in vivo.
Series [4] is described as follows: Maximum concentration for the bioavailability at a dose of 20 mg/kg administered orally. The format is ADME, organism-based. On the set-up: dose 20 mg/kg, route oral. The conditions noted are these: in vivo, po.
For series [5], the species on record is Rattus norvegicus. In words: Potency by rat adjuvant arthritis assay. The format is functional.
The species named for series [6] is Rattus norvegicus. In words: Potency by rat pyrexia assay. The format is functional.
The species named for series [7] is Rattus norvegicus. In words: Potency by rat hyperalgesia assay. The format is functional.

Some results are limits rather than exact numbers.

The IC50 is the midpoint of a concentration-inhibition curve. High values mean weaker potency, low ones greater potency. As usually defined, the ED50 is the dose that gives a 50% effect, or the effect in half of the subjects. Broadly, the Cmax is the highest concentration seen after dosing.

Chain of Prostaglandin G/H synthase 1 (P23219 whole entry): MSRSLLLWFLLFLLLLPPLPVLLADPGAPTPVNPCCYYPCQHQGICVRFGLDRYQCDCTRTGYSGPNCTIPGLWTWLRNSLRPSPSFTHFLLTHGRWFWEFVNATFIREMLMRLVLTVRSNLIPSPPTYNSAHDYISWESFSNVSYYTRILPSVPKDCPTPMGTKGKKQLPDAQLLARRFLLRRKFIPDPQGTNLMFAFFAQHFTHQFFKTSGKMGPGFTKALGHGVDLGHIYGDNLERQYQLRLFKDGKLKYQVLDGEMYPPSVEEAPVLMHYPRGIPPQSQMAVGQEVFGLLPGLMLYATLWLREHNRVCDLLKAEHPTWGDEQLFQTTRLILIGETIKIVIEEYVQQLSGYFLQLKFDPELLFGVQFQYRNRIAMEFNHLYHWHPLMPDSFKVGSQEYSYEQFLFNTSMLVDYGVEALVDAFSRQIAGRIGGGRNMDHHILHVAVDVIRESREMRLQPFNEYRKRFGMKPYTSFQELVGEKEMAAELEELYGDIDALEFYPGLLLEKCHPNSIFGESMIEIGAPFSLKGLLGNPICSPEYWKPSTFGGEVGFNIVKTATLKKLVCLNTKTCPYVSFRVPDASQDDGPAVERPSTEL

Turning to `CC1(C)OC(=O)C(Oc2ccncc2)=C1c1ccc(S(C)(=O)=O)cc1`, in series [1], the IC50 was > 100 µM.
On the same count and under the same terms, then `CC1(C)OC(=O)C(Oc2ccc(F)cn2)=C1c1ccc(S(C)(=O)=O)cc1`, with 4.6 µM.
Turning to `CC1(C)OC(=O)C(Oc2ccc3sccc3c2)=C1c1ccc(S(C)(=O)=O)cc1`, the IC50 in series [1] was < 0.3 µM.
On the same count and under the same terms, next, `CC1(C)OC(=O)C(Oc2cccc(Cl)n2)=C1c1ccc(S(C)(=O)=O)cc1`: > 10 µM; `CC1(C)OC(=O)C(Oc2ccc(C3CC3)cn2)=C1c1ccc(S(C)(=O)=O)cc1`: 3 µM; `CC1(C)OC(=O)C(Oc2cccnc2)=C1c1ccc(S(C)(=O)=O)cc1`: > 30 µM.
Consider `CC1(C)OC(=O)C(Oc2ccccn2)=C1c1ccc(S(C)(=O)=O)cc1`, for which the ED50 in the series with Rattus norvegicus [2] was > 10 mg/kg. Moreover, the concentration for half-maximal inhibition (IC50) in series [1] is > 10 µM.
In series [1], `CC1(C)OC(=O)C(Oc2ncc(Cl)cc2Cl)=C1c1ccc(S(C)(=O)=O)cc1` yielded an IC50 of 0.3 µM.
Take `CC1(C)OC(=O)C(Oc2ncnc3ccccc23)=C1c1ccc(S(C)(=O)=O)cc1`: the IC50 in series [1] was > 10 µM.
On the same count and under the same terms, then `Cc1ccc(OC2=C(c3ccc(S(C)(=O)=O)cc3)C(C)(C)OC2=O)nc1`, with 3 µM; and `CC1(C)OC(=O)C(Oc2cnccn2)=C1c1ccc(S(C)(=O)=O)cc1`, with > 10 µM.
On to `CC1(C)OC(=O)C(Oc2ccc(Cl)cn2)=C1c1ccc(S(C)(=O)=O)cc1`, for which the CL in series [3] turned out to be 4.8. Also, the 50% effect level in the series with Rattus norvegicus [2] (ED50) was put at a dose of 0.75 mg/kg. The compound further registered a Cmax in series [4] of 16 µM.
Regarding `CC1(C)OC(=O)C(Oc2ccc3ccccc3n2)=C1c1ccc(S(C)(=O)=O)cc1`, the IC50 in series [1] is 3 µM.
Still for that read-out and setting: then `CC1(C)OC(=O)C(Oc2ccc3[nH]ccc3c2)=C1c1ccc(S(C)(=O)=O)cc1`, with 1 µM.
On to `CC1(C)OC(=O)C(Oc2ccc(Br)cn2)=C1c1ccc(S(C)(=O)=O)cc1`, for which the ED50 is 0.86 mg/kg with Rattus norvegicus [2], 0.2 mg/kg in the series filed under Rattus norvegicus [5], 0.3 mg/kg in the series listed under Rattus norvegicus [6] and 0.6 mg/kg in the series listed under Rattus norvegicus [7]. Besides, in series [1], the IC50 stood at 5.6 µM.
The compound `CC1(C)OC(=O)C(Oc2ncccc2Cl)=C1c1ccc(S(C)(=O)=O)cc1` displayed an IC50 in series [1] of 1 µM.
Same read-out and setting: then `CC1(C)OC(=O)C(Oc2cccc3cnccc23)=C1c1ccc(S(C)(=O)=O)cc1`, with 3 µM; and `CC1(C)OC(=O)C(Oc2ncccn2)=C1c1ccc(S(C)(=O)=O)cc1`, with > 10 µM.
Take `CS(=O)(=O)c1ccc(C2=C(c3ccccc3)C(=O)OC2)cc1` [ROFECOXIB]: in the series with Rattus norvegicus [2], the ED50 came to 1.5 mg/kg.

Source of the values: ChEMBL document CHEMBL1131878, “Synthesis and biological evaluation of 3-heteroaryloxy-4-phenyl-2(5H)-furanones as selective COX-2 inhibitors” (Bioorg Med Chem Lett, 1999).
